Data as given in patent US8618137B2 (priority 2008, dated 2013).
Read-outs that look alike come from different tables or passages of the source. Marks after values point to notes of the source that are not given here.

What was measured:
Assay type in all cases: in vivo
[1] = test system: Plasmopara viticola (the causal agent of grape downy mildew); test: Test A: grape downy mildew, grape seedlings inoculated then sprayed with test suspension, visual disease rating; conditions: 100 = 100% disease control, 0 = no control relative to controls
Excerpt: General protocol for preparing test suspensions for Tests A-B2: The test compounds were first dissolved in acetone in an amount equal to 3% of the final volume and then suspended at the desired concentration (in ppm) in acetone and purified water (50/50 mix by volume) containing 250 ppm of the surfactant Trem® 014 (polyhydric alcohol esters). The resulting test suspensions were then used in Tests A-B2. Spraying a 200 ppm test suspension to the point of run-off on the test plants was the equivalent of a rate of 800 g/ha.
Grape seedlings were inoculated with a spore suspension of Plasmopara viticola (the causal agent of grape downy mildew) and incubated in a saturated atmosphere at 20° C. for 24 h. After a short drying period, the grape seedlings were sprayed with the test suspension to the point of run-off, then moved to a growth chamber at 20° C. for 5 days, and then back into a saturated atmosphere at 20° C. for 24 h. Upon removal, visual disease ratings were made.
Results for Tests A-B2 are given in Table A. In the Table, a rating of 100 indicates 100% disease control and a rating of 0 indicates no disease control (relative to the controls). All results are for 10 ppm except where followed by an “*” which indicates 40 ppm and “**” which indicates 200 ppm.

[2] = test system: Phytophthora infestans (the causal agent of tomato late blight); conditions: sprayed the day before inoculation, 100 = 100% disease control, 0 = no control
[3] = test system: Phytophthora infestans (the causal agent of tomato late blight); conditions: sprayed 17 h after inoculation, 100 = 100% disease control, 0 = no control

Compound | Test A rating (disease control) ([1]; test suspension 10 ppm) | Test B1 rating (disease control) ([2]; test suspension 10 ppm) | Test B2 rating (disease control) ([3]; test suspension 10 ppm) | further results
CC(CC(C)C)=NOCC(=O)N1CCC(c2nc(C3=NOC(c4c(F)cccc4F)C3)cs2)CC1 (racemic) [compound 25] | – | – | – | Test A rating (disease control) ([1]; test suspension 40 ppm (*)): 93* %; Test B1 rating (disease control) ([2]; test suspension 40 ppm (*)): 100* %; Test B2 rating (disease control) ([3]; test suspension 40 ppm (*)): 58* %
CSC(=NOCC(=O)N1CCC(c2nc(C3=NOC(c4c(F)cccc4F)C3)cs2)CC1)C(=O)N(C)C (racemic) [compound 11] | 0% | 26% | 0% | –
CC(CC(F)(F)F)=NOCC(=O)N1CCC(c2nc(C3=NOC(c4c(F)cccc4F)C3)cs2)CC1 (racemic) [compound 26] | 100% | 100% | 99% | –
CN(CC(=O)N1CCC(c2nc(C3=NOC(c4c(F)cccc4F)C3)cs2)CC1)N=CC(F)(F)F (stereo not drawn) [Compound 35] | – | – | – | Test A rating (disease control) ([1]; test suspension 40 ppm (*)): 100* %; Test B1 rating (disease control) ([2]; test suspension 40 ppm (*)): 100* %; Test B2 rating (disease control) ([3]; test suspension 40 ppm (*)): 99* %
CC(C)=NOCCC(=O)N1CCC(c2nc(C3=NOC(c4c(F)cccc4F)C3)cs2)CC1 (racemic) [compound 21] | – | – | – | Test A rating (disease control) ([1]; test suspension 40 ppm (*)): 100* %; Test B1 rating (disease control) ([2]; test suspension 40 ppm (*)): 100* %; Test B2 rating (disease control) ([3]; test suspension 40 ppm (*)): 98* %
CC(C)=NOCC(=O)N1CCC(c2nc(C(=O)N(C)[C@H](C)c3ccccc3)cs2)CC1 [compound 15] | – | – | – | Test A rating (disease control) ([1]; test suspension 40 ppm (*)): 99* %; Test B1 rating (disease control) ([2]; test suspension 40 ppm (*)): 39* %; Test B2 rating (disease control) ([3]; test suspension 40 ppm (*)): 91* %
CSC(C)=NOCC(=O)N1CCC(c2nc(C3=NOC(c4c(F)cccc4F)C3)cs2)CC1 (racemic) [compound 12] | 17% | 47% | 0% | –
CC(C)C=NOCC(=O)N1CCC(c2nc(C3=NOC(c4c(F)cccc4F)C3)cs2)CC1 (racemic) [compound 27] | – | – | – | Test A rating (disease control) ([1]; test suspension 40 ppm (*)): 98* %; Test B1 rating (disease control) ([2]; test suspension 40 ppm (*)): 100* %; Test B2 rating (disease control) ([3]; test suspension 40 ppm (*)): 99* %
CC(=NOCC(=O)N1CCC(c2nc(C3=NOC(N4C(=O)c5ccccc5C4=O)C3)cs2)CC1)C(F)(F)F (stereo not drawn) [compound 44] | 100% | 100% | 99% | –
O=C(CON=CC(F)(F)F)N1CCC(c2nc(C3=NOC(c4c(F)cccc4F)C3)cs2)CC1 (stereo not drawn) [Compound 3, 2,2,2-trifluoroacetaldehyde, O-[2-[4-[4-[5-(2,6-difluorophenyl)-4,5-dihydro-3-isoxazolyl]-2-thiazolyl]-1-piperidinyl]-2-oxoethyl]oxime] | 100% | 100% | 99% | –
CC(C)=NOCC(=O)N1CCC(c2nc(C3=NOC(c4ccccc4C)C3)cs2)CC1 (racemic) [compound 14] | 100% | 98% | 88% | –
CC=NOCC(=O)N1CCC(c2nc(C3=NOC(c4c(F)cccc4F)C3)cs2)CC1 (racemic) [compound 22] | 100% | 100% | 99% | –
O=C(CON=CC(Cl)(Cl)Cl)N1CCC(c2nc(C3=NOC(c4c(F)cccc4F)C3)cs2)CC1 (racemic) [compound 17] | 66% | 97% | 47% | –
N#Cc1ccccc1C1CC(c2csc(C3CCN(C(=O)CON=CC(F)(F)F)CC3)n2)=NO1 (racemic) [compound 20] | 100% | 100% | 99% | –
CC(C)=NOCC(=O)N1CCC(c2nc(C3=NOC4(CCc5ccccc54)C3)cs2)CC1 (stereo not drawn) [compound 13] | 99% | 99% | 99% | –
CCC(=NOCC(=O)N1CCC(c2nc(C3=NOC(c4c(F)cccc4F)C3)cs2)CC1)C(F)(F)F (racemic) [compound 23] | 98% | 99% | 83% | –
CC1=NN(CC(=O)N2CCC(c3nc(C4=NOC(c5c(F)cccc5F)C4)cs3)CC2)C(C)C1 (stereo not drawn) [Compound 40, 1-[4-[4-[5-(2,6-difluorophenyl)-4,5-dihydro-3-isoxazolyl]-2-thiazolyl]-1-piperidinyl]-2-(4,5-dihydro-3,5-dimethyl-1H-pyrazol-1-yl]ethanone] | – | – | – | Test A rating (disease control) ([1]; test suspension 40 ppm (*)): 97* %; Test B1 rating (disease control) ([2]; test suspension 40 ppm (*)): 100* %; Test B2 rating (disease control) ([3]; test suspension 40 ppm (*)): 99* %
O=C(CONC(=O)C(F)(F)F)N1CCC(c2nc(C3=NOC(c4c(F)cccc4F)C3)cs2)CC1 (stereo not drawn) [Compound 38] | 98% | 90% | 90% | Test A rating (disease control) ([1]; test suspension 40 ppm (*)): 99* %; Test B1 rating (disease control) ([2]; test suspension 40 ppm (*)): 100* %; Test B2 rating (disease control) ([3]; test suspension 40 ppm (*)): 99* %
N#CC(C#N)=NOCC(=O)N1CCC(c2nc(C3=NOC(c4c(F)cccc4F)C3)cs2)CC1 (stereo not drawn) [compound 51] | 99% | 100% | 99% | –
CC(C)(C)OC(=O)NCCC(=O)N1CCC(c2nc(C3=NOC(c4c(F)cccc4F)C3)cs2)CC1 (racemic) [compound 33] | – | – | – | Test A rating (disease control) ([1]; test suspension 200 ppm (**)): 0** %; Test B1 rating (disease control) ([2]; test suspension 200 ppm (**)): 68** %; Test B2 rating (disease control) ([3]; test suspension 200 ppm (**)): 0** %
2,2,2-trifluoroacetaldehyde, O-[2-[4-[4-[5-(2,6-difluorophenyl)-4,5-dihydro-3-isoxazolyl]-2-thiazolyl]-1-piperidinyl]-2-oxoethyl]oxime [Compound 3] | 100% | 100% | 99% | –
CC(C)=NOCC(=O)N1CCC(c2nc(C3=NOC(c4ccccc4C#N)C3)cs2)CC1 (stereo not drawn) [compound 41] | 100% | 100% | 99% | –
CN(CC(=O)N1CCC(c2nc(C3=NOC(c4c(F)cccc4F)C3)cs2)CC1)NC(=O)C(F)(F)F (stereo not drawn) [Compound 36, 2,2,2-trifluoroacetic acid 2-[2-[4-[5-(2,6-difluorophenyl)-4,5-dihydro-3-isoxazolyl]-2-thiazolyl-1-piperidinyl]-2-oxoethyl]-2-methylhydrazide] | – | – | – | Test A rating (disease control) ([1]; test suspension 200 ppm (**)): 60** %; Test B1 rating (disease control) ([2]; test suspension 200 ppm (**)): 100** %; Test B2 rating (disease control) ([3]; test suspension 200 ppm (**)): 93** %
CCC(ON=C(C)C)C(=O)N1CCC(c2nc(C3=NOC(c4c(F)cccc4F)C3)cs2)CC1 (mixture of isomers) [compound 39] | – | – | – | Test A rating (disease control) ([1]; test suspension 40 ppm (*)): 100* %; Test B1 rating (disease control) ([2]; test suspension 40 ppm (*)): 100* %; Test B2 rating (disease control) ([3]; test suspension 40 ppm (*)): 99* %
CC(C)=NOCC(=O)N1CCC(c2nc(C3=NOC(N4C(=O)c5ccccc5C4=O)C3)cs2)CC1 (stereo not drawn) [compound 45] | 96% | 95% | 99% | –
Cn1c(=O)n(C2CC(c3csc(C4CCN(C(=O)CON=CC(F)(F)F)CC4)n3)=NO2)c2ccccc21 (stereo not drawn) [compound 48] | 100% | 100% | 99% | –
CCC(C)=NOCC(=O)N1CCC(c2nc(C3=NOC(c4c(F)cccc4F)C3)cs2)CC1 (racemic) [compound 16] | 100% | 100% | 99% | –
CC(=NOCC(=O)N1CCC(c2nc(C3=NOC(c4ccccc4C#N)C3)cs2)CC1)C(F)(F)F (stereo not drawn) [compound 42] | 100% | 100% | 99% | –
